Data reported in publication PMC5578373, “Inhibitory Kappa B Kinase α (IKKα) Inhibitors That Recapitulate Their Selectivity in Cells against Isoform-Related Biomarkers” (Journal of Medicinal Chemistry, 2017).
Entries after “also recorded” stand apart in the source; their conditions may differ. Like-named read-outs stand apart in the source and are kept apart here.

Legend:
[1] = test system: IKKα-driven p100 phosphorylation in U2OS cells; assay: FCS-stimulated p100 phosphorylation (Ser866/870) in U2OS cells, Western blot; format: cell-based, human; details: 1 h pretreatment, FCS (10%) for 4 h, blots quantified, read-out: IC50 for inhibition of p100 phosphorylation
Description: (§1) Two IKKβ-dependent readouts were selected to assess selectivity over IKKβ. First, TNFα stimulates IκBα degradation through activation of IKKβ and if IKKβ is inhibited, then a band corresponding to the IκBα protein should be evident by Western analysis. Second, IKKβ phosphorylates p65 on Ser536, which can also be assessed by Western blot analysis. Only at the highest concentration (100 μM) of 48 was IκBα degradation and p65 (Ser536) phosphorylation inhibited (Figure 9b). Even at this high concentration, these effects were not apparent following pretreatment with 47 (Figure 10b).
(§2) Figure 9 Effect of compound 48 on (a) FCS-stimulated noncanonical and (b) TNF-α-induced canonical NF-kB activation in U2OS cells. Cells were pretreated with 48 1 h prior to stimulation with FCS (10%) for 4 h or TNF-α (10 ng/mL) for 30 min. Whole cell lysate were prepared, separated by SDS-PAGE, and assessed for (a) inhibition of p100 phosphorylation (Ser866/870) and (b) IkB-α and p-p65 (Ser536) status. […] The results are representative of three independent experiments.
as §2, with “10” for “9”, “47” for “48”
(§3) U2OS cells were cultured with McCoy’s 5A modified medium and MEF were cultured with DEME medium containing 10% (v/v) FCS and medium was changed every 2 d thereafter until cells became confluent. Cells were incubated at 37 °C in humidified air with 5% CO2 and rendered quiescent by serum deprivation for 24 h prior to stimulation in serum-free medium.
(§4) Whole cell lysates were prepared from U2OS and status of IκBα, p65, p-p65 (Ser536), and p-p100 (Ser 866/870) assessed by Western blotting as described in Mackenzie et al. (2007).[46]

[2] = test system: IKKβ-dependent IκBα degradation in U2OS cells; assay: TNFα-induced IκBα degradation in U2OS cells, Western blot; format: cell-based, human; details: highest concentration 100 μM, TNF-α (10 ng/mL) 30 min
Description: as §1
(§5) Figure 9 Effect of compound 48 on (a) FCS-stimulated noncanonical and (b) TNF-α-induced canonical NF-kB activation in U2OS cells. […] Whole cell lysate were prepared, separated by SDS-PAGE, and assessed for (a) inhibition of p100 phosphorylation (Ser866/870) and (b) IkB-α and p-p65 (Ser536) status. […]
as §5, with “10” for “9”, “47” for “48”
as §4

[3] = test system: IKKβ-dependent p65 (Ser536) phosphorylation in U2OS cells; assay: TNFα-induced p65 (Ser536) phosphorylation in U2OS cells, Western blot; format: cell-based, human; details: highest concentration 100 μM, TNF-α (10 ng/mL) 30 min
Description: as §1, §5
as §5, with “10” for “9”, “47” for “48”
as §4

[4] = test system: IKKα-regulated NF-κB transcriptional activation in IKKβ−/− MEFs; assay: IL-1β-stimulated NF-κB-luciferase transcriptional activity in IKKβ knockout MEFs; format: cell-based, mouse
Description: To provide further evidence for cellular activity, mouse embryonic fibroblasts lacking the IKKβ kinase subunit were utilized to investigate the potency of both compounds against agonist-stimulated IKKα-regulated NF-κB transcriptional activation. Cells were infected with an adenovirus encoding an NF-κB-luciferase promoter gene. NF-κB transcriptional activity driven by IKKα was stimulated specifically using IL-1β,[41] and the ability of the compounds to inhibit this response was assessed. […] As IKKα plays a lesser role in the canonical NF-κB cascade,[42] particularly the rapid and transient stimulated degradation of IκBα, selective IKKα inhibitors should not affect TNF-α induced IκBα degradation and p65 phosphorylation.
as §3
An adenoviral vector encoding NFκB-luciferase (Adv.NFκB-Luc) was purchased from Vector Biolabs (University of Pennsylvania, Philadelphia, US). Large-scale production of high titer recombinant adenovirus was performed by routine methods.[47] IKKβ knockout mouse embryonic fibroblasts (MEFs; kindly provided by Prof. I. Verma, UCSD, USA) were counted when approximately 60–70% confluent in T75 cm^2 flasks and infected with adenovirus up to 300 pfu/cell^–1 for 24 h in 10% DMEM. Cells were then lifted from the flasks and plated into 96-well clear bottom, black luciferase plates and allowed to settle for 24 h before serum starved overnight. Cells were then stimulated with the appropriate agonists for the indicated times and reactions terminated by addition of lysis buffer containing 0.2 mM luciferin substrate. Relative light units (RLU) were measured using a Trilux microbeta counter (luminometer).

IC50 [1]: 19.1 µM | IC50 ([1]; Homo sapiens, U2OS): 13.9 µM
SMILES: N#Cc1c[nH]c2nc(N)nc(-c3ccc(CO)cc3)c12 [Compound 47, 2-Amino-4-(4-hydroxymethyl)phenyl-7H-pyrrolo[2,3-d]pyrimidine-5-carbonitrile]
inhibition of TNFα-stimulated IκBα degradation [2]: not apparent; also recorded: did not affect | inhibition of TNFα-stimulated p65 (Ser536) phosphorylation [3]: not apparent; also recorded: did not affect | % stimulation ([4]; 100 μM compound, 1 h pretreatment, IL-1β (10 ng/mL) 6 h, IL-1β + DMSO = 100, mean ± SEM): –40.9 ± 4.6 % | inhibition of NF-κB transcriptional activity ([4]; maximal concentrations of 50–100 μM): approximately 81% | % stim ([4]; maximal concentrations of 50–100 μM, Il-1β+DMSO = 100%): 18.79 ± 7.2%
